Test results reported in publication PMC6216040, “Repurposing of an old drug: In vitro and in vivo efficacies of buparvaquone against Echinococcus multilocularis” (International Journal for Parasitology: Drugs and Drug …, 2018).
Where two headings read alike, the source gives them in different places.

Test system: E. multilocularis metacestodes
Assay: PGI-assay: drug-induced damage on in vitro cultured metacestodes (Pathogen Box screening cascade and EC50)
Assay type: cell-based, Echinococcus multilocularis
Conditions: for cytotoxicity at 10 µM: Echinococcus multilocularis; for cytotoxicity at 10 µM / PGI release, % of the Tx-100 control, 5d / PGI release, % of the Tx-100 control, 12d: singlets, 10 µM
[1] = 120 h, 5 days of incubation, read-out: PGI release, % of the Tx-100 control, 5d
[2] = 288 h, 12 days of incubation, read-out: PGI release, % of the Tx-100 control, 12d
[3] = confirmatory screening at 10 µM in triplicates, 5 days of incubation, values as % of Tx-100 control
[4] = confirmatory screening at 10 µM in triplicates, 12 days of incubation, values as % of Tx-100 control

Row | SMILES | PGI release, % of the Tx-100 control, 5d (5 days of incubation) [%] | PGI release, % of the Tx-100 control, 12d (12 days of incubation) [%] | also measured
1 | C[C@H]1c2cccc(O)c2C(=O)C2=C(O)[C@]3(O)C(=O)C(C(N)=O)=C(O)[C@@H](N(C)C)[C@@H]3[C@@H](O)[C@@H]21 [MMV000011, Doxycycline, reference compound] | – | – | cytotoxicity at 10 µM [1]: 3.26%; cytotoxicity at 10 µM [2]: -0.0343%
2 | COc1cc(NC(C)CCCN)c2ncccc2c1 (stereo not shown) [MMV000023, Primaquine, reference compound] | – | – | cytotoxicity at 10 µM [1]: -0.23%; cytotoxicity at 10 µM [2]: 17.6%
3 | CCN(CC)CCCCCCNc1cc(OC)cc2c(C)ccnc12 [MMV000063, Sitamaquine, reference compound] | – | – | cytotoxicity at 10 µM [1]: -0.0141%; cytotoxicity at 10 µM [2]: 10.8%
4 | O=S(=O)(c1ccc(Cl)cc1)N1CCN(C(=S)NCc2ccco2)CC1 [MMV000858] | -0.26 | 2.40 | –
5 | COc1cccc2c(C)nc(N=C(N)N)nc12 [MMV000907] | -2.91 | 1.72 | –
6 | CCCS(=O)(=O)N1CCC(CO)(Cc2ccccc2C(F)(F)F)CC1 [MMV001059] | 1.56 | 1.44 | –
7 | COC(=O)C1=C(C)NC(C)=C(C(=O)OC(C)C)C1c1cccc2nonc12 (stereo not shown) [MMV001493, Isradipine, reference compound] | – | – | cytotoxicity at 10 µM [1]: 0.84%; cytotoxicity at 10 µM [2]: 0.0436%
8 | CC1CS(=O)(=O)CCN1/N=C/c1ccc([N+](=O)[O-])o1 (stereo not shown) [MMV001499, Nifurtimox, reference compound] | – | – | cytotoxicity at 10 µM [1]: 2.54%; cytotoxicity at 10 µM [2]: 3.97%
9 | CNCCC(Oc1ccc(C(F)(F)F)cc1)c1ccccc1 (stereo not shown) [MMV001561, Fluoxetine, reference compound] | – | – | cytotoxicity at 10 µM [1]: -1.25%; cytotoxicity at 10 µM [2]: -5.98%
10 | O=C(C1CCCCC1)N1CC(=O)N2CCc3ccccc3C2C1 (stereo not shown) [MMV002529, Praziquantel, reference compound] | – | – | cytotoxicity at 10 µM [1]: -0.87%; cytotoxicity at 10 µM [2]: -0.49%
11 | CCN(CC)C(=O)N1CCN(C)CC1 [MMV002816, Diethylcarbamazine, reference compound] | – | – | cytotoxicity at 10 µM [1]: -0.92%; cytotoxicity at 10 µM [2]: -1.56%
12 | Oc1c(I)cc(I)c2cccnc12 [MMV002817, Diiodohydroxyquinoline, reference compound] | – | – | cytotoxicity at 10 µM [1]: -1.42%; cytotoxicity at 10 µM [2]: -0.41%
13 | CN1CCCN(C(c2ccccc2)c2ccc(Cl)cc2)CC1 (stereo not shown) [MMV004168] | -0.40 | 76.56 | PGI release, % of Tx-100 control, average, 5d [3]: -1.18%; PGI release, % of Tx-100 control, average, 12d [4]: 4.34%
14 | O=C1Nc2ccc(Br)cc2C12NCCc1c2[nH]c2ccccc12 (stereo not shown) [MMV006239] | 0.78 | 2.27 | –
15 | Cc1ccc2[nH]c3c(NCCN(C)C)ncnc3c2c1 [MMV006372] | 0.48 | -0.11 | –
16 | COc1cc2ncnc(NC3CCN(Cc4ccccc4)CC3)c2cc1OC [MMV006741] | -1.05 | 0.30 | –
17 | Cc1cc(Cl)c(S(=O)(=O)N2CCCC2)cc1OCC(=O)NC1CCCCC1 [MMV006833] | 0.0374 | -0.28 | –
18 | CN(C)c1cc(NC(=O)Nc2ccccc2)c2ccccc2n1 [MMV006901] | 13.97 | 19.56 | –
19 | Cc1cc(NC(=O)c2ccc(S(=O)(=O)N(Cc3ccccc3)C(C)C)cc2)no1 [MMV007133] | -0.95 | 0.46 | –
20 | COc1cc(OC)cc(C(=O)NCC2Cc3cc(Cl)cc(-c4ccncc4)c3O2)c1 (stereo not shown) [MMV007471] | 1.94 | 7.77 | –
21 | Cc1cc(C)n(-c2ccc(NC(=O)C3CCN(Cc4cnc(C)s4)CC3)cc2)n1 [MMV007625] | 0.65 | 25.58 | PGI release, % of Tx-100 control, average, 5d [3]: -1.00%; PGI release, % of Tx-100 control, average, 12d [4]: -1.56%
22 | CCOc1ccc(-c2nc(NC(=O)CS(=O)(=O)c3ccccc3)sc2C)cc1 [MMV007638] | -0.28 | 0.13 | –
23 | O=C(NC1CC1)c1ccc(CSCc2ccccc2Cl)o1 [MMV007803] | -0.54 | -0.13 | –
24 | Nc1ccc(C(=O)Nc2ccc(-c3nc4ccccc4o3)cc2)cc1 [MMV007920] | 0.08 | -0.69 | –
25 | COc1ccc(CN2CCOc3ccc(C(C)(O)CN(C)C)cc3C2)cc1C (stereo not shown) [MMV008439] | -0.31 | -1.11 | –
26 | Cc1cc(C(=O)Nc2cnn(Cc3ccc(Cl)cc3Cl)c2)no1 [MMV009054] | -0.80 | -0.25 | –

Row | SMILES | PGI release, % of the Tx-100 control, 5d (5 days of incubation) [%] | PGI release, % of the Tx-100 control, 12d (12 days of incubation) [%] | also measured
27 | O=C(C1CCN(c2nnnn2-c2ccccc2)CC1)N1CCc2ccccc2C1 [MMV009135] | -0.49 | -1.30 | –
28 | COc1ccc(-c2cnc3ccc(NCc4ccc(S(N)(=O)=O)cc4)nn23)cn1 [MMV010545] | -0.28 | -0.35 | –
29 | COc1cc(-c2cc(-c3ccc(S(C)(=O)=O)cc3)cnc2N)ccc1O [MMV010576] | -0.22 | -2.40 | –
30 | c1csc(-c2cnc3sc(NCC4CCOCC4)nn23)c1 [MMV010764] | -0.61 | -4.41 | –
31 | Cc1cc(Nc2ccc(C(F)(F)F)cc2)n2ccnc2n1 [MMV011229] | -0.86 | -1.35 | –
32 | COc1ccc(CCN2CCC(NCc3cccc(N(C)C)c3)CC2)cc1 [MMV011511] | 1.21 | 4.25 | –
33 | NCC(=O)N1CCn2c(nc(-c3ccccc3)c2Nc2ccc3c(c2)OCO3)C1 [MMV011691] | 1.25 | 2.05 | –
34 | FC(F)(F)c1cnc(Sc2nnc(-c3ccncc3)o2)c(Cl)c1 [MMV011765] | 0.33 | 0.66 | –
35 | Cc1ccc(NC(=O)c2nc[nH]c2C(=O)Nc2nc3ccccc3[nH]2)c(C)c1 [MMV011903] | 41.66 | 94.00 | PGI release, % of Tx-100 control, average, 5d (1 µM, triplicates, 5 days of incubation): -2.96%; PGI release, % of Tx-100 control, average, 12d (1 µM, triplicates, 12 days of incubation): -9.52%; activity in the screen at 10 μM (confirmed in triplicates, >20% relative PGI release) (10 μM, 5 and 12 days): active; PGI release, % of Tx-100 control, average, 5d [3]: 4.49%; PGI release, % of Tx-100 control, average, 12d [4]: 34.00%
36 | Cc1nc2ccccn2c1C(=O)NCc1ccc(Cl)cc1 [MMV012074] | 0.39 | -0.51 | –
37 | Cc1cc(Nc2ccncc2)n2nc(C)c(-c3ccccc3Cl)c2n1 [MMV016136] | 0.97 | 2.16 | –
38 | Cc1ccc(-c2cc(C(=O)Nc3cccnc3)c3cc(Br)ccc3n2)cc1 [MMV016838] | -0.19 | -0.0545 | –
39 | Cc1cc(C)n2nc(C(=O)Nc3cc(C(F)(F)F)ccc3N3CCOCC3)nc2n1 [MMV019087] | -0.91 | -0.17 | –
40 | Cc1ccc2c(c1C)NC(=O)C21NN=C(c2ccccc2)S1 (stereo not shown) [MMV019189] | 4.07 | -1.23 | –
41 | COc1ccc(C2CC(c3cccs3)=NN2C(=O)c2ccco2)cc1OC (stereo not shown) [MMV019234] | 0.82 | 6.10 | –
42 | CCC(NC(=O)c1ccccc1NC(=O)c1ccc(C)cc1)C(=O)OC (stereo not shown) [MMV019551] | -0.56 | 0.21 | –
43 | CCN(CC)S(=O)(=O)c1ccc(Cl)c(C(=O)Nc2ccc3nc(C)sc3c2)c1 [MMV019721] | -0.43 | -1.86 | –
44 | Cc1ccc(S(=O)(=O)N2CCN(C(=O)c3cc(-c4ccccc4)n[nH]3)CC2)cc1 [MMV019742] | 0.16 | 0.57 | –
45 | CCOc1ccccc1C(=O)Nc1cccc(-c2nc3ncccn3c2C)c1 [MMV019790] | -1.05 | 53.36 | PGI release, % of Tx-100 control, average, 5d [3]: -1.68%; PGI release, % of Tx-100 control, average, 12d [4]: -2.24%
46 | Cc1ccc2cc(C3NC(=O)c4ccccc4N3)c(Cl)nc2c1 (stereo not shown) [MMV019807] | 1.08 | 2.05 | –
47 | O=C(Nc1ccnc(-c2cccnc2)n1)c1cc(C(F)(F)F)cc(C(F)(F)F)c1 [MMV019838] | 1.37 | -0.96 | –
48 | Cc1nn(C)cc1C(C)Nc1nncc(-c2ccc(C(F)(F)F)cc2)n1 (stereo not shown) [MMV019993] | -0.77 | -1.30 | –
49 | COc1cccc(CC(=O)N2CCC(n3c(C)nc4ccc(F)cc43)CC2)c1 [MMV020081] | -1.15 | -0.33 | –
50 | CC1CC1C(=O)NC1CCN(CC2(c3ccccc3)CCCCC2)CC1 (stereo not shown) [MMV020120] | -0.34 | -0.45 | –
51 | CNC(=O)c1cc(S(=O)(=O)N2CCN(c3ccccn3)CC2)cs1 [MMV020136] | -0.32 | 0.25 | –
52 | Cc1cc(C(=O)Nc2ccc(-c3ccccc3)cc2)no1 [MMV020152] | 0.07 | -0.81 | –
